According to US6034230A, “Nucleic acids encoding myocardial peptides” (priority 1999, dated 2000):

Test system: Balb/c mice
Assay: Oligodeoxynucleotides as immunostimulators: immunization with M7A-alpha peptide plus oligodeoxynucleotide, inflammatory heart disease at day 21
Type: in vivo
Conditions: for Severity of inflammatory heart disease (score) / Prevalence of inflammatory heart disease: Table 2, day 21; for Severity of inflammatory heart disease (score): about 10 nmol oligodeoxynucleotide + about 50 micrograms M7A-alpha, score scale of Example 1; for Immunostimulatory / adjuvant activity: with M7A-alpha peptide, in the absence of Freund's complete adjuvant
[1] = about 10 nmol oligodeoxynucleotide as adjuvant + about 50 micrograms M7A-alpha, Freund's incomplete adjuvant, days 0 and 7

Row | Sequence | Severity of inflammatory heart disease (score) (Freund's incomplete adjuvant) | Prevalence of inflammatory heart disease [1] | Prevalence of inflammatory heart disease (negative control: about 10 nmol oligodeoxynucleotide without peptide) | Immunostimulatory / adjuvant activity
1 | GTACTGACGTTTACTCTTGG (chemistry not given here) [CpG, oligonucleotide from DNA encoding 60 kDa cysteine rich outer membrane protein of Chlamydia trachomatis, containing a CpG motif] | 1.2 ± 0.4 | 5/5 | 0/5 | potent immunostimulator
2 | GTACTGAGCTTTACTCTTGG (chemistry not given here) [non-CpG, counterpart of the CpG oligo not containing the CpG motif, reference compound] | 1.0 ± 0.0 | 1/5 | – | hardly effective as an adjuvant
